Laboratory results as given in PubChem BioAssay AID2061108 (Research group of Professor Matthew Todd, School of …, 2025).
Activity calls are given as the source filed them. How the calls were made is not given here.

Tests used:
Test in all cases: antibacterial and antifungal growth inhibition panel, profiling panel, Idler compounds, first plate, PMBN-permeabilized strains (AID 2061108)
Set-up in all cases: haemolysis: dose or concentration left out as unconfirmed
[1] = tested on: M. avium growth inhibition, 10 uM; settings: M. avium growth inhibition, 10 µM
[2] = tested on: A. baumannii ATCC 17978 + PMBN growth inhibition, 100 uM; settings: A. baumannii plus PMBN growth inhibition, 100 µM; stronger effect = higher value
[3] = tested on: C. albicans NCPF 3281 growth inhibition, 100 uM; settings: S. aureus ATCC 9144 growth inhibition; measured here: C. albicans NCPF 3281; at 100 µM; stronger effect = higher value
[4] = tested on: S. aureus ATCC 9144 growth inhibition, 100 uM; settings: S. aureus ATCC 9144 growth inhibition; at 100 µM; stronger effect = higher value
[5] = tested on: E. coli NCTC 12923 growth inhibition, 100 uM; settings: E. coli NCTC 12923 growth inhibition, 100 µM; stronger effect = higher value
[6] = tested on: E. coli NCTC 12923 + PMBN growth inhibition, 100 uM; settings: S. aureus ATCC 9144 growth inhibition; measured here: E. coli plus PMBN; at 100 µM; stronger effect = higher value
[7] = tested on: A. baumannii ATCC 17978 growth inhibition, 100 uM; settings: S. aureus ATCC 9144 growth inhibition; measured here: A. baumannii ATCC 17978; at 100 µM; stronger effect = higher value
[8] = tested on: red blood cell haemolysis; settings: stronger effect = higher value; dose or concentration not given here
[9] = tested on: M. abscessus growth inhibition, 10 uM; settings: S. aureus ATCC 9144 growth inhibition; measured here: M. abscessus; at 10 µM

Row | SMILES | inhibition [1] [%] | inhibition [2] [%] | inhibition [3] [%] | inhibition [4] | inhibition [5] [%] | inhibition [6] [%] | inhibition [7] [%] | haemolysis [8] [%] | inhibition [9] [%]
1 | CC(Nc1ccc2oc(=O)[nH]c2c1)C(=O)Nc1ccccc1C#N (configuration not stated) | 0.0692 | 14.5 | 28 | 8.83% (inactive) | -4.73 | -6.79 | -0.833 | 0.275 | -1.22
2 | NC(=O)CSc1nnc(COc2ccccc2)n1-c1ccccc1 | 0.364 | 23.4 | -39.3 | 15.3% (inactive) | -3.24 | 2.8 | 0.843 | 0.123 | 0.484
3 | O=S(=O)(F)c1cccc(NCc2ccc(F)cc2)n1 | 1.19 | 16.7 | -98.2 | 13% (inactive) | -1.49 | 0.494 | -3.33 | -0.396 | -1.1
4 | Cc1cc(C)c(S(=O)(=O)N2CCC(C(=O)NCc3cccnc3)CC2)c(C)c1 | -0.596 | 25.7 | -44.9 | 12.6% (inactive) | -1.08 | 5.73 | -2.53 | 0.266 | 0.182
5 | O=C(Nc1ccc(-c2nn[nH]n2)cc1)c1ccc(Oc2ccccc2)cc1 | -1.24 | 16.4 | -19.7 | 16.2% (inactive) | 0.27 | 17.2 | -0.833 | -0.191 | -0.941
6 | COc1ccc2c(c1)nc(-c1c[nH]c3cc(N4CCOCC4)ccc13)c1[nH]ccc12 | 1.53 | 95.9 | -104 | 101% | 14.1 | 98.5 | 53.1 | 0.675 | 0.186
7 | CCC(C)C(N)C(=O)NS(=O)(=O)c1cccc(-c2cc3ncnc(N)c3s2)c1 (configuration not stated) | 10.3 | -15.9 | -21.7 | -39.6% (inactive) | -29.6 | -27.4 | -17.8 | 0.094 | -0.383
8 | NC(=O)C1CCN(c2nc(OCc3ccc(F)nc3)nc(N3CCn4c(nnc4C(F)(F)F)C3)n2)CC1 | 1.56 | 11.7 | -84 | 16.7% (inactive) | -2.57 | -3.54 | -4.58 | 0.123 | 0.0526
9 | O=S(=O)(Nc1ccc(Oc2ccccc2)cc1)c1ccc(-c2nn[nH]n2)cc1 | 0.208 | 34.1 | -30.5 | 70% (inactive) | 0.135 | 21.7 | -18.3 | 1.69 | -0.359
10 | C=CC(=O)N1CCC[C@H](CC(=O)O)C1 | 0.225 | 22.4 | -64.4 | 14.4% (inactive) | -6.76 | 5.85 | 0 | -0.0261 | -0.00311
11 | O=c1[nH]c(=O)c2cc(S(=O)(=O)Nc3cc(F)c(N4CCN(c5ccccn5)CC4)c(F)c3)ccc2[nH]1 | 1.7 | 24 | -115 | 10.2% (inactive) | 0.946 | 9.51 | 4.58 | 0.458 | -0.0939
12 | COc1cc(OC)cc(C2(NC(=O)c3ccc(N4CCOCC4)cc3)COC2)c1 | -0.0617 | 19.4 | -72 | 11.7% (inactive) | 0.541 | 0.123 | 2.38 | -0.148 | -0.558
13 | CC(C)NC(=O)Nc1cccc(C(=O)NC(C)c2cccc(Br)c2)c1 (configuration not stated) | -5.32 | 34.3 | 26.3 | 3.67% (inactive) | -0.541 | 28.6 | 4.29 | -0.0024 | -1.08
14 | CCn1c(SCC(=O)N(C)c2ccccc2)nnc1-c1cn(C)nc1OC | -1.26 | 4.29 | 8.04 | -11.4% (inactive) | -41.1 | -23.5 | -2.53 | 0.564 | 0.00036
15 | Cn1nc(C(C)(C)C)cc1NC(=O)Nc1ccc(Cl)cc1 | 0.442 | 83 | -75.2 | -18.4% | 12.6 | 99.4 | -12 | 0.904 | -0.347
16 | C=CC(=O)N1CCCc2c(C(=O)O)cccc21 | 0.285 | 18.6 | -51.3 | 17% (inactive) | -5.27 | -5.12 | -1.2 | 0.129 | -0.114
17 | O=S(=O)(F)c1ncc(Cl)cc1Br | 0.219 | 5.94 | -41.4 | -14.2% (inactive) | -27.7 | -23.7 | 0.595 | 0.564 | -0.925
18 | CCC(C)NS(=O)(=O)CCCOc1ccc(F)cc1 (configuration not stated) | -0.527 | 28.8 | -63.1 | 10.3% (inactive) | 0 | -9.51 | -4.88 | -0.19 | -0.898
19 | O=C(Nc1ccc(OC2CCCCC2)cc1)c1ccc(-c2nn[nH]n2)cc1 | -0.389 | 17.1 | 6.07 | 7.17% (inactive) | 1.08 | 6.17 | -15.8 | 0.0779 | -1.07
20 | O=C(Nc1cccc(C(F)(F)F)c1)C(Cl)C(=O)c1ccccc1 (configuration not stated) | 1.13 | 99.6 | 101 | 101% | 34.5 | 100 | 46.6 | 0.0983 | 0.0425
21 | Cc1ccc(CN2C(=O)NC3(CCN(C(=O)C(C)Oc4ccccc4)CC3)C2=O)cc1 (configuration not stated) | -0.615 | 22.5 | -57.6 | 8.83% (inactive) | -2.03 | 22.5 | -7.26 | -0.00857 | -1.03
22 | COc1ccc(/C=C(\C#N)S(=O)(=O)c2ccccc2)cc1OC | -0.352 | 12.6 | -60.8 | 16.3% (inactive) | -0.135 | 3.58 | 0.595 | 2.6 | -0.905
23 | CCOc1ccc2ncc(C#N)c(N3CCC(C(=O)NCc4ccccc4F)CC3)c2c1 | -1.25 | 1 | -38.3 | -21.2% (inactive) | -44.6 | -24 | -5.66 | 0.211 | -0.367
24 | O=C(Cc1ccc(C(F)(F)F)nc1)N1Cc2cccnc2C1 | 0.169 | 22 | -94.2 | 6.84% (inactive) | -5.95 | -4.27 | 0.241 | 4.32 | -0.0961
25 | COc1cccc(C(=O)Nc2nc3cc(Cl)c(OC)cc3s2)c1 | 0.396 | 19.1 | -74.4 | 2.28% (inactive) | -30.8 | -13.2 | -4.34 | 4.42 | -0.266
26 | O=C(N/N=C/c1ccc2cccc(O)c2n1)c1ccncc1 | -0.55 | 37.1 | -33.7 | 23.3% (inactive) | 8.65 | -1.73 | 13.7 | 0.565 | -0.775
27 | Cn1nc(NC(=O)Nc2ccc(Cl)cc2)cc1C(C)(C)C | 0.567 | -3 | -94 | -14.7% (inactive) | -25 | -30.4 | -22 | 0.275 | -0.422
28 | Cc1ccc(C)c(N2CCN(C(=O)C3CCN(c4ncnc5c4sc4ncccc45)CC3)CC2)c1 | 9.54 | 5.07 | 24.6 | 6.17% (inactive) | 9.19 | 0.988 | -3.57 | 0.267 | -1.18
